Laboratory results as given in article PMC11286144 (Archives of biochemistry and biophysics, 2024).
Several values for one entry are separate records, joined by “and”; a condition that tells them apart may be missing. Equal entries are not always repeated.

Tests used:
Test in all cases: BFC debenzylase activity assay
[1] = target: CYP3A4 (WT) (Homo sapiens, UniProt P08684)
[2] = target: K257A CYP3A4 (Homo sapiens, UniProt P08684, K257A)
[3] = target: K266A CYP3A4 (Homo sapiens, UniProt P08684, K266A)
K266A CYP3A4, sequence (P08684 whole entry K266A): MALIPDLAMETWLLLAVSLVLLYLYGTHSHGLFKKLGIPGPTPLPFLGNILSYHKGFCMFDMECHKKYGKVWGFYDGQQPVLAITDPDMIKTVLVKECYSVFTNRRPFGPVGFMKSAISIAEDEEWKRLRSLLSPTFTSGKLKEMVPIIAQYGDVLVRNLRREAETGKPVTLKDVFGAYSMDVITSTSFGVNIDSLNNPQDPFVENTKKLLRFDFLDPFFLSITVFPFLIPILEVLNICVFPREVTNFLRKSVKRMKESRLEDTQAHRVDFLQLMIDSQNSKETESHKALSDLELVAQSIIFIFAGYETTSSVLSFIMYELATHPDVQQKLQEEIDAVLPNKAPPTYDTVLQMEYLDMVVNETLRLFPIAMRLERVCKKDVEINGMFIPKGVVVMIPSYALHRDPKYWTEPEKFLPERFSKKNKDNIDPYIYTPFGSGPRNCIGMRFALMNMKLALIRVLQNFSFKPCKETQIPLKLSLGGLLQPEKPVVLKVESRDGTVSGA

CYP3A4 (WT), sequence (P08684 whole entry): as the sequence (P08684 whole entry K266A) above, with A266K counted along it
K257A CYP3A4, sequence (P08684 whole entry K257A): as the sequence (P08684 whole entry K266A) above, with K257A, A266K counted along it

nH (Hill coefficient) [1]: 1.8 and 1.8 ± 0.1
nH (Hill coefficient) ([2]; K257A CYP3A4): 1.0
higher Vmax than wild type ([2]; K257A CYP3A4 vs WT): 28%
nH (Hill coefficient) ([3]; K266A CYP3A4): 1.9 and 1.9 ± 0.1
higher Vmax than wild type ([3]; K266A CYP3A4 vs WT): 44%
SMILES: O=c1cc(C(F)(F)F)c2ccc(OCc3ccccc3)cc2o1 [BFC]
